Measured values taken from paper PMC4552634, “A New Set of Chemical Starting Points with Plasmodium falciparum Transmission-Blocking Potential for Antimalarial Drug Discovery” (PLoS ONE, 2015).
Read-outs that look alike come from different tables or passages of the source.

Columns and labels:
[1] = system: P. falciparum stage V gametocytes; assay: Gametocytocidal ATP bioluminescence assay (single point 5 μM and 1 μM, dose-response); assay type: cell-based, Plasmodium falciparum; settings: for Ratio IC50 HepG2/IC50 P. falciparum: IC50 HepG2 divided by IC50 P. falciparum gametocytes
Experimental: Purified stage IV-V gametocytes were obtained as previously described [10]. Single point ATP bioluminescence assay and dose–response of positive hits was determined in accordance with the previously published protocol [10].

[2] = system: P. falciparum asexual stages; settings: asexual stages; TCAMS data; read-out: IC50 asexual; cited from earlier work
[3] = system: luciferase reaction (BacTiter-Glo); assay: Interference assay (inhibition of the BacTiter-Glo luciferase reaction); assay type: biochemical; design: concentration or dose not given beside the values; settings: ATP interference assay
Experimental: To discard possible false-positive results, we performed an interference assay in parallel. […] […]. The ATP solution was made by dissolving ATP powder (ATP standard from the ATPlite 1 step assay kit, reference 6016731, Perkin Elmer) in culture medium. The positive control used was the Luciferase Inhibitor I Calbiochem (Merck, 119113) at 100 μM.

HepG2 cells = assay: Cytotoxicity in HepG2 cells (intracellular ATP, ATPlite, 48 h); assay type: cell-based, human; settings: HepG2 cells; IC50 per ratio column head; unit inferred
[4] = P. falciparum gametocytes, average, read-out: IC50 Pf Gametocytes average, IC50 (µM) average
[5] = sexual stages (gametocytes), dose-response, read-out: IC50 sexual

Structure (SMILES)	Ratio IC50 HepG2/IC50 P. falciparum [1]	IC50 [1, 4] [µM]	IC50 [1, 5] [µM]	IC50 [2] [nM]	% Control luminiscence [3] [%]	IC50 (HepG2 cells) [nM]
COc1ccc(C[C@H](N)C(=O)N[C@H]2[C@@H](O)[C@H](n3cnc4c(N(C)C)ncnc43)O[C@@H]2CO)cc1 [TCMDC-123927]	4	0.65	0.647	299	100	2690
N=c1n(CCN2CCCCC2)c2ccccc2n1CC(O)c1ccc(Cl)c(Cl)c1 (stereo not shown) [TCMDC-124064]	1.59	3.27	3.27	320	100	5200
Cc1ccc(-n2nc(-c3ccccc3)c3cc(C(=O)NCCN)sc32)cc1 [TCMDC-124776]	7	1.11	–	1360	99	7830
COc1ccc(OC)c(-c2cccc(-c3cccc(NC(=O)c4ccc([N+](=O)[O-])o4)c3)n2)c1 [TCMDC-124799]	8	0.78	–	371	100	6150
COc1ccccc1-c1cccc(-c2cccc(NC(=O)c3ccc([N+](=O)[O-])o3)c2)n1 [TCMDC-124800]	7	1.66	1.66	603	100	11500
O=C(Nc1cccc(-c2cccc(-c3ccc(F)cc3)n2)c1)c1ccc([N+](=O)[O-])o1 [TCMDC-124807]	4.55	1.53	1.53	361	100	6940
CCc1[nH]nc(C(=O)NC2CCN(CC3(c4ccc(OC)cc4)CCCCC3)CC2)c1C [TCMDC-124840]	–	> 10	–	892	100	> 25000
CS(=O)(=O)c1cccc2sc(N3CCN(C(=O)c4ccc([N+](=O)[O-])o4)CC3)nc12 [TCMDC-124930]	<1.9	> 10	–	1240	100	18800
Cc1nn(CC(C)C)c2sc(C(=O)N3CCN(S(=O)(=O)c4ccc(C#N)cc4)CC3)cc12 [TCMDC-125045]	>12	2.09	2.09	739	92	> 25000
Cc1ccccc1OCC(O)CNC1CCC(NCC(O)COc2ccccc2C)CC1 (stereo not shown) [TCMDC-125142]	26	0.14	0.144	1190	99	3780
O=C(Nc1ccc2c(c1)CCCN2S(=O)(=O)c1cccs1)c1cc([N+](=O)[O-])ccc1Cl [TCMDC-125153]	>9	2.66	2.66	845	100	> 25000
Cc1cc(NCCCCCCNc2cc(C)nc3c(C)cccc23)c2cccc(C)c2n1 [TCMDC-125702]	>7.5	3.32	3.31	406	100	> 25000
CN(C)c1ccc2c(c1)Sc1cc(N(C)C)ccc1N2C(=O)CCCC(=O)O [TCMDC-125778]	–	> 5	–	802	100	> 25000
C[C@H](Cc1ccc(C[C@@H](C)NC[C@H](O)c2cccc(Cl)c2)cc1)NC[C@H](O)COc1ccccc1 [TCMDC-131549]	5	0.92	0.923	1170	100	4700
C[C@H](Cc1ccc(OCCCCCOc2ccc(C[C@@H](C)NC[C@H](O)c3cccc(Cl)c3)cc2)cc1)NC[C@H](O)c1cccc(Cl)c1 [TCMDC-131563]	3.25	0.55	–	190	100	1790
CCc1c(CCNCCCCCCNCCc2ccc([N+](=O)[O-])cc2)ccc(OC)c1OC [TCMDC-132066]	12	0.54	0.537	727	100	6670
COc1ccc(CNC2Cc3ccccc3C2)cc1-c1ccc(S(=O)(=O)NCCN2CCCC2)cc1 [TCMDC-132248]	6	1.38	1.38	582	100	8280
Cc1cc(-c2cccc(CNC3CCCC3)c2)ccc1S(=O)(=O)NCCN1CCCC1 [TCMDC-132279]	6	1.24	1.24	1240	100	7500
COc1ccc(CNCc2ccc(F)cc2)cc1-c1ccc(S(=O)(=O)NCCN2CCCC2)cc1 [TCMDC-132294]	5.36	1.21	1.21	1040	98	6500
COc1ccc(CNCCc2cccs2)cc1-c1cccc(S(=O)(=O)NCCN2CCCC2)c1 [TCMDC-132479]	7	1.68	1.68	877	94	11400
O=C(Nc1ccc(N2CCNCC2)cc1)c1ccn2ncc(-c3cccc(Cl)c3)c2n1 [TCMDC-132663]	6.35	3.5	–	922	95	22200
Nc1ncc(-c2ccc3nccc(-c4ccncc4)c3c2)cc1S(=O)(=O)N1CCOCC1 [TCMDC-134180]	>3	6.9	–	872	100	> 25000
CN(C)S(=O)(=O)c1cc(-c2ccc3nccc(-c4cccc(S(N)(=O)=O)c4)c3c2)cnc1N [TCMDC-134230]	<1.5	> 10	–	251	100	14800
Nc1ncc(-c2ccc3nccc(-c4ccncc4)c3c2)cc1S(=O)(=O)N1CCCCC1 [TCMDC-134265]	>12	2.07	2.07	581	100	> 25000
COc1ccc(-c2cnn3ccc(Nc4cc(OC)c(OC)c(OC)c4)nc23)cc1OC [TCMDC-134383]	8	1.62	1.62	650	100	12900
COc1ccc2nc(-c3cccc(C)n3)nc(Nc3ccncc3)c2c1 [TCMDC-134670]	–	2.51	–	669	100	> 25000
COCCn1c(-c2cccc(Cl)c2)nn(-c2ccc([N+](=O)[O-])cc2C#N)c1=S [TCMDC-134719]	>9	2.78	2.78	178	97	> 25000
CC(C)(C)OC(=O)NCc1ccc(Nc2nnc(-c3ccc(OCC(=O)NCc4ccc(C(C)(C)C)cc4)c([N+](=O)[O-])c3)o2)cc1 [TCMDC-134991]	4.5	0.7	–	800	100	3150
